Results from patent publication US5753655A, “1-arylsulphonyl, arylcarbonyl and arylthiocarbonyl pyridazino derivatives and methods of preparation” (Ortho Pharmaceutical Corporation, priority 1996, dated 1998).

Assays:
[1] = target: T1, rabbit uterine cytosolic progestin receptor (PR) (Oryctolagus cuniculus, UniProt P06186); test: Progestin Receptor Binding: competitive displacement of 3H-R5020; parameters: species or system rabbit (New Zealand rabbits); conditions: rabbit uterine cytosol, 4° C., 18 h, read-out: PR: concentration required to displace 50% of H3 labeled R5020 (IC50)
T1 construct: The high speed supernatant fraction is used as the receptor preparation; from tissue; host or cells: uterus of New Zealand rabbits, 200,000 G supernatant (cytosol)
T1 sequence (P06186 1-930): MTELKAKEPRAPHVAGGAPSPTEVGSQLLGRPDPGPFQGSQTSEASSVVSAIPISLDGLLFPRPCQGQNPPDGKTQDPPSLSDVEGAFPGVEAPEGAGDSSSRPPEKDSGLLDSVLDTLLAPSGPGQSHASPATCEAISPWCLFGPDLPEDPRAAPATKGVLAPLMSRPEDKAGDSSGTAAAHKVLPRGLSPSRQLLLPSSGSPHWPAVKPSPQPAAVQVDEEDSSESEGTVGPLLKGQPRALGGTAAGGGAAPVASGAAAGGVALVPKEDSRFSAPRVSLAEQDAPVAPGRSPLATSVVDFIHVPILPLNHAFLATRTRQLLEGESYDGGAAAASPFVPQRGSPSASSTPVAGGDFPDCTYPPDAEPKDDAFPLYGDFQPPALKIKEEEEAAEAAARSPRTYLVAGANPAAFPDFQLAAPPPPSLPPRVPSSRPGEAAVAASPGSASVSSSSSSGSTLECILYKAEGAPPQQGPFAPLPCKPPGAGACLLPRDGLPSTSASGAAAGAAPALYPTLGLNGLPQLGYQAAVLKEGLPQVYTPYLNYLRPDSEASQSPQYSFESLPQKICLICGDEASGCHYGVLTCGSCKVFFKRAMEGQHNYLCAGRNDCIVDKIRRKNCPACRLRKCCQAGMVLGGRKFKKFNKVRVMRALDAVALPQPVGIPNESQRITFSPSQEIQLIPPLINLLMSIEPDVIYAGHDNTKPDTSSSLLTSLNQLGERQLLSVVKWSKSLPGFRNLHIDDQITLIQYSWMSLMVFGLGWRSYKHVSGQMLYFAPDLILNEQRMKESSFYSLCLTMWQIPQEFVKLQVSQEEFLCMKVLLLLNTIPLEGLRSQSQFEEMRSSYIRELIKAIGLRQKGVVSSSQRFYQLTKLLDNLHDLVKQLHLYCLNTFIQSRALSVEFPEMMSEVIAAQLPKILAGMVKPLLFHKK
Experimental: Progestin Receptor Binding
The procedure used is essentially that of J. L. McGuire, C. D. Bariso and A. P. Shroff in Biochemistry 13, 319 (1974).
Uteri from New Zealand rabbits (1.5 to 2.5 kg) are placed in a cold buffer A (0.01M Tris-HCl, pH 8.0, 0.001M EDTA, 0.25M sucrose). The uteri are minced, washed and homogenized in cold buffer A. The homogenate (2 g wet tissue/mL buffer) is centrifuged at 200,000 G for 1 h at 4° C. The high speed supernatant fraction is used as the receptor preparation.
A competitive binding assay is performed by mixing ^3 H-R5020 with the receptor preparation and adding a known amount of unlabelled compound. This mixture is incubated at 4° C. for 18 h. The compounds bound to the receptor are separated from those free in solution using dextran coated charcoal and the amount of isotope bound to the receptor is determined. A depression of 20% or greater from control isotope binding is considered significant.
If there is no value reported in the T47D column that particular compound was not tested.

[2] = tested on: T47D human breast carcinoma cells; test: Ex Vivo Progestational Test: 3H-thymidine incorporation into T47-D cells; assay type: cell-based; conditions: for EC50: T47D, antagonist, printed with - sign, R5020 (promegestone) induced proliferation, read-out: T47D: antagonist EC50 against R5020 induced proliferation
Experimental: Ex Vivo Progestational Test
The incorporation of ^3 H-thymidine into T47-D cells was used to test the effect of compounds on T47-D cell proliferation.
T47-D (human breast line) was used employing standard sterile techniques. Cells were maintained in RPMI 1640 medium supplemented with fetal bovine serum (10%) and insulin (0.2 I.U./ml). Cells were trypsinized and passaged using standard procedures.
Cells were plated in 96-well microtiter plates by incubation in RPMI medium (phenol red-free, insulin-free, 5% charcoal treated fetal bovine serum) at 37° C. in an atmosphere of 95% air/5% CO2. Approximately 48 hours later, spent medium was replaced by fresh medium containing test compounds dissolved in DMSO (0.1% final concentration) and the cells were incubated for approximately 22 hours. ^3 H-Thymidine was added and the incubation allowed to proceed for another 4 hours. The test was then stopped with the addition of excess unlabeled thymidine. Cells were washed free of soluble thymidine, trypsinized and harvested by standard procedures. The amount of ^3 H-thymidine incorporated into DNA was determined by liquid scintillation counting. The primary standards were promegestone, a potent synthetic progestin and RU486, an antiprogestin. Test compounds were generally screened at concentrations ranging from 0.1 to 1000 nM. A compound was considered active if it stimulated or inhibited thymidine incorporation. Results were expressed as the concentration of test compounds needed to increase proliferation 2 times over control (SC200) or the concentration needed to inhibit promegestone induced proliferation by 50% (EC50). A value less than 1000 nM was considered active.
Aspects of the application of the procedure used are described in the following: C. Christensen, D. Gunter, D. Saunders and V. Malviya, Gynecol. Oncol., 28, 25 (1987); J. Puzas, R. Drivdahl, G. Howard and D. Baylink, Proc. Soc. Exp. Biol. Med., 166, 113 (1981); and I. Keydar, L. Chen, S. Karby, F. Weiss, J. Delarea, M. Raduy, S. Chaitcik and H. Brenner, Eur. J. Cancer, 15, 659 (1979). […]

TE85 human bone cells = test: Bone cell proliferation (TE85 cells); assay type: cell-based; conditions: average at 5 concentrations
Excerpt: A similar method was used to measure the effect of test compounds on TE85 human bone cells.
Tables 2 and 3 show several examples of the invention with molecular formulas, melting points, and activity expressed as the average increase in bone cell proliferation at 5 concentrations (CP) or as the concentration of compound in nanomoles per liter (×10^-9 M) required to displace 50% of I^125 labeled vinyl nortestosterone (VNT) from the human bone progestin receptor (BPR) (IC50). If there is no value reported in the CP column that particular compound was not tested.

O=S(=O)(c1ccc(I)cc1)N1CCC2CCCc3c(Br)cccc3C2=N1 (stereo not shown) [Example 1, 8-Bromo-3,4,4a,5,6,7-hexahydro-2-(4-iodobenzenesulfonyl)-2H-benzo[6,7]cyclohepta[1,2c]pyridazine]
IC50 [1]: 0.076 µM

O=S(=O)(c1ccc(I)cc1)N1CCC2CCc3c(Br)cccc3C2=N1 (stereo not shown) [Example 2, 8-Bromo-3,4-diazo-1,2,3,9,10,10a-hexahydro-3-(4-iodobenzenesulfonyl)phenanthrene]
IC50 [1]: 0.01 µM

O=S(=O)(c1ccc(I)cc1)N1CCC2CCc3c(ccc(Br)c3Br)C2=N1 (stereo not shown) [Example 3, 7,8-Dibromo-3,4-diazo-1,2,3,9,10,10a-hexahydro-3-(4-iodobenzenesulfonyl)phenanthrene]
IC50 [1]: 0.0024 µM
EC (2-fold above control) ([2]; agonist, printed with + sign, T47D proliferation, 3H-thymidine, read-out: T47D: agonist SC200 (concentration stimulating 2fold above control)): 0.337 µM

O=S(=O)(c1ccc(I)cc1)N1CCC2CCc3cc(Cl)ccc3C2=N1 (stereo not shown) [Example 4, 7-Chloro-3,4-diazo-1,2,3,9,10,10a-hexahydro-3-(4-iodobenzenesulfonyl)phenanthrene]
IC50 [1]: 0.0083 µM
EC50 [2]: 0.654 µM

O=S(=O)(c1cc(Cl)ccc1Cl)N1CCC2CCc3cc(Cl)ccc3C2=N1 (stereo not shown) [Example 5, 7-Chloro-3,4-diazo-1,2,3,9,10,10a-hexahydro-3-(2,5-dichlorobenzenesulfonyl)phenanthrene]
IC50 [1]: 0.034 µM
EC50 [2]: 0.495 µM

O=C(c1ccc(Cl)c(Cl)c1)N1CCC2CCc3ccccc3C2=N1 (stereo not shown) [Example 6, 3-(3,4-dichlorobenzoyl)-3,4-diazo-1,2,3,9,10,10a-hexahydrophenanthrene]
CP: average increase in bone cell proliferation at 5 concentrations (TE85 human bone cells): 115

O=C(c1cc(Cl)cc(Cl)c1)N1CCC2CCCc3ccccc3C2=N1 (stereo not shown) [Example 7, 2-(3,5-dichlorobenzoyl)-3,4,4a,5,6,7-hexahydro-2H-benzo[6,7]cyclohepta[1,2c]pyridazine]
CP: average increase in bone cell proliferation at 5 concentrations (TE85 human bone cells): 120

O=C(c1ccc(Cl)c(Cl)c1)N1CCC2CCCc3ccccc3C2=N1 (stereo not shown) [Example 9, 2-(3,4-dichlorobenzoyl)-3,4,4a,5,6,7-hexahydro-2H-benzo[6,7]cyclohepta[1,2c]pyridazine]
CP: average increase in bone cell proliferation at 5 concentrations (TE85 human bone cells): 123

O=C(c1ccc(F)c(F)c1)N1CCC2CCc3ccccc3C2=N1 (stereo not shown) [Example 10, 3-(3,4-difluorobenzoyl)-3,4-diazo-1,2,3,9,10,10a-hexahydrophenanthrene]
CP: average increase in bone cell proliferation at 5 concentrations (TE85 human bone cells): 112

O=C(c1cc(Cl)cc(Cl)c1)N1CCC2CCc3ccccc3C2=N1 (stereo not shown) [Example 11, 3-(3,5-dichlorobenzoyl)-3,4-diazo-1,2,3,9,10,10a-hexahydrophenanthrene]
CP: average increase in bone cell proliferation at 5 concentrations (TE85 human bone cells): 113

O=C(c1ccc(Cl)c(Cl)c1)N1CCC2COc3ccccc3C2=N1 (stereo not shown) [Example 12, 3-(3,4-dichlorobenzoyl)-3,4-diazo-9-oxa-1,2,3,9,10,10a-hexahydrophenanthren]
CP: average increase in bone cell proliferation at 5 concentrations (TE85 human bone cells): 107

S=C(c1cc(Cl)cc(Cl)c1)N1CCC2CCCc3ccccc3C2=N1 (stereo not shown) [Example 15, 2-(3,5-dichlorothiobenzoyl)-3,4,4a,5,6,7-hexahydro-2H-benzo[6,7]cyclohepta[1,2c]pyridazine]
CP: average increase in bone cell proliferation at 5 concentrations (TE85 human bone cells): 109

Fc1ccc(C(=S)N2CCC3CCCc4ccccc4C3=N2)cc1F (stereo not shown) [Example 16, 2-(3,4-difluorothiobenzoyl)-3,4,4a,5,6,7-hexahydro-2H-benzo[6,7]cyclohepta[1,2c]pyridazine]
CP: average increase in bone cell proliferation at 5 concentrations (TE85 human bone cells): 111

S=C(c1ccc(Cl)c(Cl)c1)N1CCC2CCCc3ccccc3C2=N1 (stereo not shown) [Example 17, 2-(3,4-dichlorothiobenzoyl)-3,4,4a,5,6,7-hexahydro-2H-benzo[6,7]cyclohepta[1,2c]pyridazine]
CP: average increase in bone cell proliferation at 5 concentrations (TE85 human bone cells): 115

S=C(c1ccc(Cl)c(Cl)c1)N1CCC2CCc3ccccc3C2=N1 (stereo not shown) [Example 19, 3-(3,4-dichlorothiobenzoyl)-3,4-diazo-1,2,3,9,10,10a-hexahydrophenanthrene]
CP: average increase in bone cell proliferation at 5 concentrations (TE85 human bone cells): 87

S=C(c1cc(Cl)cc(Cl)c1)N1CCC2CCc3ccccc3C2=N1 (stereo not shown) [Example 20, 3-(3,5-dichlorothiobenzoyl)-3,4-diazo-1,2,3,9,10,10a-hexahydrophenanthrene]
CP: average increase in bone cell proliferation at 5 concentrations (TE85 human bone cells): 103
